Assay [1] concerns the target T1, Serine/threonine-protein kinase RIO1 (Homo sapiens, UniProt Q9BRS2).
T1 sequence (Q9BRS2 whole entry): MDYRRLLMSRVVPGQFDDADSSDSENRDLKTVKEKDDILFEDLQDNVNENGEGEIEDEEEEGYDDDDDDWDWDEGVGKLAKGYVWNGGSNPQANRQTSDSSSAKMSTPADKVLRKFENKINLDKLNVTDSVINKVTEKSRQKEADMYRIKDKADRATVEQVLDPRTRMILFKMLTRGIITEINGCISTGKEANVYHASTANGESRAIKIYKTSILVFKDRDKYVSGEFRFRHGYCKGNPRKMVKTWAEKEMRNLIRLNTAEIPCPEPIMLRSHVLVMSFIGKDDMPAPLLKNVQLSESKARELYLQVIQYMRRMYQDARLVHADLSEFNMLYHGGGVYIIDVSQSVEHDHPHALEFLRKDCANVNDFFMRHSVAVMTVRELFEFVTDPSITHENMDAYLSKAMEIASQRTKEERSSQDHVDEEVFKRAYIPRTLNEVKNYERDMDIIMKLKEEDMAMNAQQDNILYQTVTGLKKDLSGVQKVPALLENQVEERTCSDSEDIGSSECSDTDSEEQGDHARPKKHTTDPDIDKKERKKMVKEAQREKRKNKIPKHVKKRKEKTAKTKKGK

Assay [2] has as its target Protein kinase C eta type (Homo sapiens, UniProt P24723).
For assay [3], the target named is T2, Serine/threonine-protein kinase tousled-like 1 (Homo sapiens, UniProt Q9UKI8).
T2 sequence (Q9UKI8 whole entry): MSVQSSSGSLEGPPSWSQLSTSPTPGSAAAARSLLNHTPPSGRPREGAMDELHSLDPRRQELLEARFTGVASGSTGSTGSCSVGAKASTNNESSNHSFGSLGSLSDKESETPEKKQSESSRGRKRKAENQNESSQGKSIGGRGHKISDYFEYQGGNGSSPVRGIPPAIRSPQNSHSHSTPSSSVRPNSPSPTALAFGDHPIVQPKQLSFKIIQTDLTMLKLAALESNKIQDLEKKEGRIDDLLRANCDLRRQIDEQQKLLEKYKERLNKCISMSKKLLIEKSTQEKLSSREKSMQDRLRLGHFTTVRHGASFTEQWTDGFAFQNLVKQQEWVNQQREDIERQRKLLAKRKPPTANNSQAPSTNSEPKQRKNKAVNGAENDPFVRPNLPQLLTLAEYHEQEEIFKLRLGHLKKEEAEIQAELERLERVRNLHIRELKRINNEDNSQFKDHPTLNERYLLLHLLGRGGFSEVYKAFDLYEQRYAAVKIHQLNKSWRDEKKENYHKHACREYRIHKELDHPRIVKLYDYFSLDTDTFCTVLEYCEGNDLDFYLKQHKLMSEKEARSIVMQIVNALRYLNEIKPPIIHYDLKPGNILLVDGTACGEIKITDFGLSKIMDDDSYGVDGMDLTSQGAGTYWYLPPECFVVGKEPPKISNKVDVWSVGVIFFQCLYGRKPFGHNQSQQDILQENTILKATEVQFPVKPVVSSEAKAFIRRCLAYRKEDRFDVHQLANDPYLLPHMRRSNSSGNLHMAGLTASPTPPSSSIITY

For assay [4], the target named is T3, Tyrosine-protein kinase Mer (Homo sapiens, UniProt Q12866).
T3 sequence (Q12866 whole entry): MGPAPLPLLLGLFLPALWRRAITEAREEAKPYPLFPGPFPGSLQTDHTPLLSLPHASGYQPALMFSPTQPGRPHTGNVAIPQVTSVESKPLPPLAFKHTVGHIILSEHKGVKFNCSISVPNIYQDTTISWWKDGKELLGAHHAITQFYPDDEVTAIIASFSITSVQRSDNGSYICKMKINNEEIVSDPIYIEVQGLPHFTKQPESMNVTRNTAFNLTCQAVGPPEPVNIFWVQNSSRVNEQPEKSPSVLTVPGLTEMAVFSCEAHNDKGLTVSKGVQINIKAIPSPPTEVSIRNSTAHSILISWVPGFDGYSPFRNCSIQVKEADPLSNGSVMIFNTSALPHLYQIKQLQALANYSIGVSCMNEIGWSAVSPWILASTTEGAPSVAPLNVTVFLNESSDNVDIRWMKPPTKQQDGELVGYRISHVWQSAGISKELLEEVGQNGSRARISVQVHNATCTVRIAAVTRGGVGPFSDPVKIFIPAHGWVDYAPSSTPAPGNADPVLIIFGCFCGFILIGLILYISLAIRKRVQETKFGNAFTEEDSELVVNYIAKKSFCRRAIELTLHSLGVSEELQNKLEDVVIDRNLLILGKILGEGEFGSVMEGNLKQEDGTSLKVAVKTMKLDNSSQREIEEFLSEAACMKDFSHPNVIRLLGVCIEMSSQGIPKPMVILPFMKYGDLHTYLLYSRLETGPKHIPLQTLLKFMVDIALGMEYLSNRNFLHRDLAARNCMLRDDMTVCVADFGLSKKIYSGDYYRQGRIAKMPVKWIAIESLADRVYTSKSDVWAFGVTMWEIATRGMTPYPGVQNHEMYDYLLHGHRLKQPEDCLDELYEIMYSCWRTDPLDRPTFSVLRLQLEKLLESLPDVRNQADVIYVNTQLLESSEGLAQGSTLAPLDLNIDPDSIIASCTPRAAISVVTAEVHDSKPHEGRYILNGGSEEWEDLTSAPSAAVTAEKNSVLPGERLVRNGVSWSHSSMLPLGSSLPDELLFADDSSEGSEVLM

In assay [5] the target is Serine/threonine-protein kinase 10 (Homo sapiens, UniProt O94804).

Each structure is given as a SMILES string. Some results are limits rather than exact numbers.

Chain of Protein kinase C eta type (P24723 whole entry): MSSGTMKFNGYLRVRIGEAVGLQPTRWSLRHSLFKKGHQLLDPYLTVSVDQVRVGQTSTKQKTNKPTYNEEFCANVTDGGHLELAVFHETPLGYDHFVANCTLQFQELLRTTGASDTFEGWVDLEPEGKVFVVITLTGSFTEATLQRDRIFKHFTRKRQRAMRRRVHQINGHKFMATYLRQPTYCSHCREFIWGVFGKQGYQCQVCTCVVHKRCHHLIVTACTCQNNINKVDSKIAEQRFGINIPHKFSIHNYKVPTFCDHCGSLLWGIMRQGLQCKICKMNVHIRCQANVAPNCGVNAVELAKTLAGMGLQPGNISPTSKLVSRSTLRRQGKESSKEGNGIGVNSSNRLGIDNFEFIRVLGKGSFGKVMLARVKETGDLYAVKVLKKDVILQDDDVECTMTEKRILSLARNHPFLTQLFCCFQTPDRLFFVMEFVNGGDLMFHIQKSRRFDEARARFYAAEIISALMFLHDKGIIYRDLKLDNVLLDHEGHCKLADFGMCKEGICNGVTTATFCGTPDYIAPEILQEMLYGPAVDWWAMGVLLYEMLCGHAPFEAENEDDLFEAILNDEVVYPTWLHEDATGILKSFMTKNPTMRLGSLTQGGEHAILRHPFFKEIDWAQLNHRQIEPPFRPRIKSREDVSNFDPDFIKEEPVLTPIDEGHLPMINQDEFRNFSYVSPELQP
Chain of Serine/threonine-protein kinase 10 (O94804 whole entry): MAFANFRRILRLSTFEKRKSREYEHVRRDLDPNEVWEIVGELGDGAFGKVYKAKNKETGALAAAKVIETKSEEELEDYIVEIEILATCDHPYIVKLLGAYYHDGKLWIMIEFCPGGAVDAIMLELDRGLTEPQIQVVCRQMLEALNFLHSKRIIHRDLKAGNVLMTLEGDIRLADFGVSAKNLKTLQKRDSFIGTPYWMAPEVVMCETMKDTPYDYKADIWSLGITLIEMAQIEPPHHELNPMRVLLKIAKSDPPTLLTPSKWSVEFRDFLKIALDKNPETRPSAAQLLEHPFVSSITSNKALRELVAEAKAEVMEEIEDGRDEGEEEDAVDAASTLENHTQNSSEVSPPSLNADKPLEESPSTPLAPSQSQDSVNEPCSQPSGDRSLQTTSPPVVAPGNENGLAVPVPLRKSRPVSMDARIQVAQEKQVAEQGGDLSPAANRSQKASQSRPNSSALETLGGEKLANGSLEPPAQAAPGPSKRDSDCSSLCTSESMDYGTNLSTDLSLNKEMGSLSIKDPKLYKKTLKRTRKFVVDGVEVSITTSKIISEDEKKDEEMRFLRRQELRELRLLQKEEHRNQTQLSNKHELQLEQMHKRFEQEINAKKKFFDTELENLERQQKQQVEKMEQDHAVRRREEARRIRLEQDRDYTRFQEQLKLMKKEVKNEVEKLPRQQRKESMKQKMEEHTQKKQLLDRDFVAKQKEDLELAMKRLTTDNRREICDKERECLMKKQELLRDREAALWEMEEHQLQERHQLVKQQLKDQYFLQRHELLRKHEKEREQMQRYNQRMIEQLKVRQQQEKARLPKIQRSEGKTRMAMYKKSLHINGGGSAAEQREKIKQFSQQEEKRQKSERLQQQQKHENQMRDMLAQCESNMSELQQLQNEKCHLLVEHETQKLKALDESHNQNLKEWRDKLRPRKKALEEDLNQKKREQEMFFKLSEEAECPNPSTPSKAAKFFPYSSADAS

As a reminder, the Kd is the equilibrium constant for the complex coming apart. A high value points to lower affinity. Consider `Oc1ccc(-c2nc(-c3ccncc3)c(-c3ccc(F)cc3)[nH]2)cc1` [SB-202190], for which the Kd in assay [1], in assay [2], in assay [3], in assay [4] and in assay [5] was more than 10 µM in each case.

Consider `COCC(=O)NC/C=C/c1ccc2ncnc(Nc3ccc(Oc4ccc(C)nc4)c(C)c3)c2c1` [CP-724714], for which the Kd in assay [1], in assay [2], in assay [3], in assay [4] and in assay [5] was more than 10 µM in each case.

In turn, `Nc1nc(Nc2ccc(S(N)(=O)=O)cc2)nn1C(=O)c1c(F)cccc1F` [JNJ-7706621] came in with a Kd in assay [2] of more than 10 µM.

For `NC(=O)c1ccc(-c2nc(-c3ccc4c(c3)OCO4)c(-c3ccccn3)[nH]2)cc1` [SB-431542], the equilibrium dissociation constant (Kd) in assay [1], in assay [2], in assay [3], in assay [4] and in assay [5] was more than 10 µM each time.

As to `CCOc1cc2ncc(C#N)c(Nc3ccc(F)c(Cl)c3)c2cc1NC(=O)/C=C/CN(C)C` [PELITINIB], the Kd in assay [1] is more than 10 µM; in assay [2] it was more than 10 µM; in assay [3], more than 10 µM; in assay [4] it was 1.3 µM.

The values above are taken from ChEMBL document CHEMBL1150977, “A quantitative analysis of kinase inhibitor selectivity” (Nat Biotechnol, 2008).
